Data on 17 compounds can be found in patent US9388142B2, “Quinazolinone derivatives as PARP inhibitors” (MERCK PATENT GMBH, priority 2012, dated 2016).

Counter-ions that a name gives are not always drawn. Like-named read-outs stand apart in the source and are kept apart here. Bounds are passed on as bounds.

Test [1] addresses T1, GST-tagged Tankyrase-1 (1023-1327 aa) (Homo sapiens, UniProt O95271).
T1 construct: GST-tagged Tankyrase-1 (1023-1327 aa)
Kind of test: biochemical. The text has this:
aq (aqueous), h (hour), g (gram), L (liter), mg (milligram), MHz (Megahertz), min. (minute), mm (millimeter), mmol (millimole), mM (millimolar), m.p. (melting point), eq (equivalent), mL (milliliter), L (microliter), ACN (acetonitrile), AcOH (acetic acid), CDCl3 (deuterated chloroform), CD3OD (deuterated methanol), CH3CN (acetonitrile), c-hex (cyclohexane), DCC (dicyclohexyl carbodiimide), DCM (dichloromethane), DIC (diisopropyl carbodiimide), DIEA (diisopropylethyl-amine), DMF (dimethylformamide), DMSO (dimethylsulfoxide), DMSO-d6 (deuterated dimethylsulfoxide), EDC (1-(3-dimethyl-amino-propyl)-3-ethylcarbodiimide), ESI (Electro-spray ionization), EtOAc (ethyl acetate), Et2O (diethyl ether), EtOH (ethanol), HATU (dimethylamino-([1,2,3]triazolo[4,5-b]pyridin-3-yloxy)-methylene]-dimethylammonium hexafluorophosphate), HPLC (High Performance Liquid Chromatography), i-PrOH (2-propanol), K2CO3 (potassium carbonate), LC (Liquid Chromatography), MeOH (methanol), MgSO4 (magnesium sulfate), MS (mass spectrometry), MTBE (Methyl tert-butyl ether), NaHCO3 (sodium bicarbonate), NaBH4 (sodium borohydride), NMM (N-methyl morpholine), NMR (Nuclear Magnetic Resonance), PyBOP (benzotriazole-1-yl-oxy-trispyrrolidino-phosphonium hexafluorophosphate), RT (room temperature), Rt (retention time), SPE (solid phase extraction), TBTU (2-(1-H-benzotriazole-1-yl)-1,1,3,3-tetramethyluromium tetrafluoro borate), TEA (triethylamine), TFA (trifluoroacetic acid), THF (tetrahydrofuran), TLC (Thin Layer Chromatography), UV (Ultraviolet). Description of the In Vitro Assays Abbreviations: GST=Glutathione-S-transferase FRET=Fluorescence resonance energy transfer HTRF®=(homogenous time resolved fluorescence) HEPES=4-(2-hydroxyethyl)-1-piperazine ethanesulfonic acid buffer DTT=Dithiothreitol BSA=bovine serum albumin CHAPS=detergent; CHAPS=3[(3-cholamidopropyl)dimethylammonio]-1-propanesulfonate Streptavidin-XLent® is a high grade streptavidin-XL665 conjugate for which the coupling conditions have been optimized to yield a conjugate with enhanced performances for some assays, particularly those requiring high sensitivity.
The autoparsylation assay is run in two steps: the enzymatic reaction in which GST-tagged Tankyrase-1, resp Tankyrase-2 transferred biotinylated ADP-ribose to itself from biotinylated NAD as co-substrate and the detection reaction where a time resolved FRET between cryptate labelled anti-GST bound to the GST tag of the enzyme and Xlent® labelled-streptavidin bound the biotin-parsylation residue is analysed. The autoparsylation activity was detectable directly via the increase in HTRF signal.
The autoparsylation assay is performed as 384-well HTRF® (Cisbio, Codolet, France) assay format in Greiner low volume nb 384-well microtiter plates and is used for high throughput screen. […] The reaction is stopped by the addition of 1 μl 50 mM EDTA solution. […] The ratio of the emission signals is determined. The full value used is the inhibitor-free reaction. […] The inhibitory values (IC50) are determined using either the program Symyx Assay Explorer® or Condosseo® from GeneData.

The target of the next test is T2, His-tagged Parp-1 (Homo sapiens, UniProt P09874).
T2 construct: purchased Enzo Life Sciences GmbH, Lörrach, Germany
Nature of the test: PARP-1 autoparsylation assay (HTRF). Type of test: biochemical. From the text: Description of the PARP1 Assay
Biochemical Activity Testing of PARP-1: Autoparsylation Assay
The autoparsylation assay is run in two steps: the enzymatic reaction in which His-tagged Parp-1 transfers biotinylated ADP-ribose/ADP-ribose to itself from biotinylated NAD/NAD as co-substrate and the detection reaction where a time resolved FRET between cryptate labelled anti-His antibody bound to the His tag of the enzyme and Xlent® labelled-streptavidin bound the biotin-parsylation residue is analysed. The autoparsylation activity is detectable directly via the increase in HTRF signal.
The autoparsylation assay is performed as 384-well HTRF® (Cisbio, Codolet, France) assay format in Greiner low volume nb 384-well microtiter plates. 35 nM His-tagged Parp-1 (human, recombinant, Enzo Life Sciences GmbH, Lörrach, Germany) and a mixture of 125 nM bio-NAD (Biolog, Life science Inst., Bremen, Germany) and 800 nM NAD as co-substrate are incubated in a total volume of 6 μl (100 mM Tris/HCl, 4 mM Mg-chloride, 0.01% IGEPAL® CA630, 1 mM DTT, 0.5% DMSO, pH 8, 13 ng/μl activated DNA (BPS Bioscience, San Diego, US)) in the absence or presence of the test compound (10 dilution concentrations) for 150 min at 23° C. The reaction is stopped by the addition of 4 μl of the Stop/detection solution (70 nM SA-Xlent® (Cisbio, Codolet, France), 2.5 nM Anti-His-K® (Eu-labelled anti-His, Cisbio, Codolet, France) in 50 mM HEPES, 400 mM KF, 0.1% BSA, 20 mM EDTA, pH 7.0). After 1 h incubation at room temperature the HTRF iss measured with an Envision multimode reader (Perkin Elmer LAS Germany GmbH) at excitation wavelength 340 nm (laser mode) and emission wavelengths 615 nm and 665 nm. The ratio of the emission signals is determined. The full value used is the inhibitor-free reaction. The pharmacological zero value used is Olaparib (LClabs, Woburn, US) in a final concentration of 1 The inhibitory values (IC50) are determined using either the program Symyx Assay Explorer® or Condosseo® from GeneData.

For test [2], the target named is T3, GST-tagged Tnks-1 (1023-1327 aa) (Homo sapiens, UniProt O95271).
T3 construct: GST-tagged Tnks-1 (1023-1327 aa, prepared in-house); made in house
Nature of the test: TNKS1 activity ELISA (autoparsylation assay). Type of test: biochemical. The following applies: read-out: IC50 TNKS1 ELISA. The protocol:
Description of the TNKS1 and TNKS2 ELISA Assay
Then the activity assay with biotinylated NAD is performed in the absence/presence of the compounds. During the enzymatic reaction GST tagged TNKS transfers biotinylated ADP-ribose to itself from biotinylated NAD as co-substrate. For the detection streptavidin-HRP conjugate is added that binds to the biotinylated TNKS and is thereby captured to the plates. The amount of biotinylated resp. autoparsylated TNKS is detected with a luminescence substrate for HRP. The level of the luminescence signal correlates directly with the amount of autoparsylated TNKS and therefore with activity of TNKS.
The activity ELISA is performed in 384 well Glutathione coated microtiter plates (Express capture Glutathione coated plate, Biocat, Heidelberg, Germany). The plates are pre-equilibrated with PBS. […] The plates are washed 3 times with PBS-Tween-20. The wells are blocked by incubation at room temperature for 20 minutes with 50 μl blocking buffer (PBS, 0.05% Tween-20, 0.5% BSA). Afterwards the plates are washed 3 times with PBS-Tween-20. […] The reaction is stopped by 3 times washing with PBS-Tween-20. For the detection 50 μl of 20 ng/μl Streptavidin, HRP conjugate (MoBiTec, Gottingen, Germany) in PBS/0.05% Tween-20/0.01% BSA are added and the plates are incubated for 30 minutes at room temperature. After three times washing with PBS-Tween-20 50 μl of SuperSignal ELISA Femto Maximum sensitivity substrate solution (ThermoFisherScientific (Pierce), Bonn, Germany) are added. Following a 1 minute incubation at room temperature luminescence signals are measured with an Envision multimode reader (Perkin Elmer LAS Germany GmbH) at 700 nm. The full value used is the inhibitor-free reaction. […] The inhibitory values (IC50) are determined using either the program Symyx Assay Explorer® or Condosseo® from GeneData.
For orientation: ELISA stands for enzyme-linked immunosorbent assay.

Where [3] appears, read: read-out: IC50 tankyrase 1 (enzyme assay).

T2 sequence (P09874 whole entry): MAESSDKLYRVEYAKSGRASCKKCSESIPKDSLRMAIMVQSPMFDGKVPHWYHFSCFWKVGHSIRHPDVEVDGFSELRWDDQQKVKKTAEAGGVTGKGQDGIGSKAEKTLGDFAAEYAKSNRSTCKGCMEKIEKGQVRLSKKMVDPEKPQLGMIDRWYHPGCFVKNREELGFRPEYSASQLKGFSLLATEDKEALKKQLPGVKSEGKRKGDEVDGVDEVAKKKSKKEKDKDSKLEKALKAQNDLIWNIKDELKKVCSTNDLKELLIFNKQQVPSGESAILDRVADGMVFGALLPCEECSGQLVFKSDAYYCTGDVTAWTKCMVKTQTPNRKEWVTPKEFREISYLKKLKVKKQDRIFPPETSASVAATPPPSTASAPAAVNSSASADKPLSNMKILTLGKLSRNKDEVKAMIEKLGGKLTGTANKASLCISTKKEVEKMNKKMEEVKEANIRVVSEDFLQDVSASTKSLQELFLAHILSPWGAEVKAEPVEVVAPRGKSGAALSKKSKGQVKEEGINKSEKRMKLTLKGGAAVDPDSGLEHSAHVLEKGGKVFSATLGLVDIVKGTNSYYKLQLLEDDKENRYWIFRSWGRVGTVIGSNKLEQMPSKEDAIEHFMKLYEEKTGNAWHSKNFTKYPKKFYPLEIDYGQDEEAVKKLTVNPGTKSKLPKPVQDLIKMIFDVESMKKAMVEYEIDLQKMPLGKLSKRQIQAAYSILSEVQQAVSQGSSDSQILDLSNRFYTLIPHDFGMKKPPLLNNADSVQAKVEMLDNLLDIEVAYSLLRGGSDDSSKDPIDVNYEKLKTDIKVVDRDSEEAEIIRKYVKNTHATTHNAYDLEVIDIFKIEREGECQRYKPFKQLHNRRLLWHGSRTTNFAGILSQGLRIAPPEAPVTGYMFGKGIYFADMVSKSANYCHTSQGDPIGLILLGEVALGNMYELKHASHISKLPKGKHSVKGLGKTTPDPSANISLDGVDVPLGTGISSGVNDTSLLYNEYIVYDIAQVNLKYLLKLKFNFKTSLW
T3 sequence (O95271 1023-1327): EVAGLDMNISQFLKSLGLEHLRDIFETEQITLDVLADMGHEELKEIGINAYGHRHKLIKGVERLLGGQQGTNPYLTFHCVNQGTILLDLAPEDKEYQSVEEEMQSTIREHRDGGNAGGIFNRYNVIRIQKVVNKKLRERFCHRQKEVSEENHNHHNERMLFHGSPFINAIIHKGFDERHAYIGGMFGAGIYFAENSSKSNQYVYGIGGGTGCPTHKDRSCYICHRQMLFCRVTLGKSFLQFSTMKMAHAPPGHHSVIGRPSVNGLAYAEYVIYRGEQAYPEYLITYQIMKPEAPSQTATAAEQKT
T1 sequence (O95271 1023-1327): as above

On to `CC(C)(O)c1ccc(-c2nc3ccc(F)cc3c(=O)[nH]2)cc1` [Compound A1, 6-fluoro-2-[4-(1-hydroxy-1-methyl-ethyl)-phenyl]-3H-quinazolin-4-one], for which the figures for the IC50 (in test [1] (setting [3]); against His-tagged Parp-1; in test [2]) were under 0.3 µM, 0.3 to 3 µM and under 0.3 µM, respectively.
In the case of `COc1cccc2c(=O)[nH]c(-c3ccc(C(C)(C)O)cc3)nc12` [Compound A2, 2-[4-(1-hydroxy-1-methyl-ethyl)-phenyl]-8-methoxy-3H-quinazolin-4-one], the results for the IC50 (in test [1] (setting [3]); at His-tagged Parp-1; in test [2]) were under 0.3 µM, 0.3 to 3 µM and under 0.3 µM, respectively.
As to `CC(C)(O)c1ccc(-c2nc3c(F)cccc3c(=O)[nH]2)cc1` [Compound A3, 8-fluoro-2-[4-(1-hydroxy-1-methyl-ethyl)-phenyl]-3H-quinazolin-4-one], the IC50 (commonly the concentration that gives 50% inhibition) in test [1] (setting [3]) is under 0.3 µM; at His-tagged Parp-1, 0.3 to 3 µM; in test [2], under 0.3 µM.
Take `CC(C)(O)c1ccc(-c2nc3cccc(F)c3c(=O)[nH]2)cc1` [Compound A4, 5-fluoro-2-[4-(1-hydroxy-1-methyl-ethyl)-phenyl]-3H-quinazolin-4-one]: the IC50 in test [1] (setting [3]) is under 0.3 µM; on His-tagged Parp-1 it was 0.3 to 3 µM; in test [2], under 0.3 µM.
Consider `CC(C)(O)c1ccc(-c2nc3ccc(Cl)cc3c(=O)[nH]2)cc1` [Compound A5, 6-chloro-2-[4-(1-hydroxy-1-methyl-ethyl)-phenyl]-3H-quinazolin-4-one], for which the IC50 in test [1] (setting [3]) and in test [2] was under 0.3 µM throughout.
With `CC(C)(O)c1ccc(-c2nc3c(Cl)cccc3c(=O)[nH]2)cc1` [Compound A6, 8-chloro-2-[4-(1-hydroxy-1-methyl-ethyl)-phenyl]-3H-quinazolin-4-one], the IC50 was under 0.3 µM in test [1] (setting [3]), 0.3 to 3 µM on His-tagged Parp-1 and under 0.3 µM in test [2].
Take `CC(C)(OCCO)c1ccc(-c2nc3ccc(F)cc3c(=O)[nH]2)cc1` [Compound A7, 6-fluoro-2-{4-[1-(2-hydroxy-ethoxy)-1-methyl-ethyl]-phenyl}-3H-quinazolin-4-one]: the IC50 in test [1] (setting [3]) was under 0.3 µM; on His-tagged Parp-1 it was 0.3 to 3 µM; in test [2], under 0.3 µM.
Consider `COCCOC(C)(C)c1ccc(-c2nc3ccc(F)cc3c(=O)[nH]2)cc1` [Compound A8, 6-fluoro-2-{4-[1-(2-methoxy-ethoxy)-1-methyl-ethyl]-phenyl}-3H-quinazolin-4-one], for which the IC50 is 0.3 to 3 µM in test [1] (setting [3]), 3 to 50 µM on His-tagged Parp-1 and under 0.3 µM in test [2].
For the compound `CC(C)(C)c1ccc(-c2nc3ccc(F)cc3c(=O)[nH]2)cc1` [Compound A9, 2-(4-tert-butyl-phenyl)-6-fluoro-3H-quinazolin-4-one], the IC50 is under 0.3 µM in test [1] (setting [3]), 3 to 50 µM at His-tagged Parp-1 and under 0.3 µM in test [2].
`CN1CCN(c2ccc(-c3nc4ccc(F)cc4c(=O)[nH]3)cc2)CC1` [Compound A10, 6-fluoro-2-[4-(4-methyl-piperazin-1-yl)-phenyl]-3H-quinazolin-4-one]: the values for the IC50 (in test [1] (setting [3]); on His-tagged Parp-1; in test [2]) were under 0.3 µM, 0.3 to 3 µM and under 0.3 µM, respectively.
In turn, `CC(C)(O)c1ccc(-c2nc3c(F)cc(F)cc3c(=O)[nH]2)cc1` [Compound A11, 6,8-difluoro-2-[4-(1-hydroxy-1-methyl-ethyl)phenyl]-3H-quinazolin-4-one] registered an IC50 on His-tagged Parp-1 of 0.3 to 3 µM.
`CC(C)(O)c1ccc(-c2nc3ccc(F)c(F)c3c(=O)[nH]2)cc1` [Compound A12, 5,6-difluoro-2-[4-(1-hydroxy-1-methyl-ethyl)phenyl]-3H-quinazolin-4-one]: the IC50 in test [1] (setting [3]) was under 0.3 µM; against His-tagged Parp-1 it was 0.3 to 3 µM; in test [2], under 0.3 µM.
Turning to `CC(C)(O)c1ccc(-c2nc3ccc(F)cc3c(=O)[nH]2)nc1` [Compound A13, 6-fluoro-2-[5-(1-hydroxy-1-methyl-ethyl)-2-pyridyl]-3H-quinazolin-4-one], the IC50 in test [1] (setting [3]) was in the range of 0.3 to 3 µM.
In the case of `Cc1cc(F)cc2c(=O)[nH]c(-c3ccc(C(C)(C)OCCO)cc3)nc12` [Compound A21, 6-fluoro-2-{4-[1-(2-hydroxy-ethoxy)-1-methyl-ethyl]-phenyl}-8-methyl-3H-quinazolin-4-one], the results for the IC50 (in test [1] (setting [3]); at His-tagged Parp-1; in test [2]) were 0.3 to 3 µM, 0.3 to 3 µM and under 0.3 µM, respectively.
On to `CC(C)(O)c1ccc(-c2nc3cccc(Cl)c3c(=O)[nH]2)cc1` [Compound A23, 5-chloro-2-[4-(1-hydroxy-1-methyl-ethyl)-phenyl]-3H-quinazolin-4-one], for which the IC50 was 0.3 to 3 µM in test [1] (setting [3]) and under 0.3 µM in test [2].
As for `CC(C)(O)c1ccc(-c2nc3c(F)ccc(F)c3c(=O)[nH]2)cc1` [Compound A27, 5,8-difluoro-2-[4-(1-hydroxy-1-methyl-ethyl)-phenyl]-3H-quinazolin-4-one], in test [1] (setting [3]), the IC50 was under 0.3 µM.
As for `O=c1[nH]c(-c2ccc(C3CCNCC3)cc2)nc2c(F)cc(F)cc12` [Compound A34, 6,8-difluoro-2-(4-piperidin-4-yl-phenyl)-3H-quinazolin-4-one hydrochloride], the IC50 in test [1] was under 0.3 µM.
